# Tests used:
# Mus musculus [1] = assay: Dose required for 50% reduction of spontaneous locomotory activity in mice when administered orally; format: functional; settings: po
# Rattus norvegicus [2] = assay: Dose required for 50% reduction of plasma cholesterol in rat when administered orally (200 mg/kg maximal administered dose); format: functional; settings: po
# [3] = Dose required for 50% lethality after intraperitoneal administration in mice; format: ADME, organism-based; settings: mouse, in vivo, ip
# Rattus norvegicus [4] = assay: Dose required for 50% reduction of plasma cholesterol in rat when administered orally.; format: functional; settings: po
# Rattus norvegicus [5] = assay: Percent reduction of triglyceride level in plasma was evaluated 100 mg/kg in rat; format: functional
# Rattus norvegicus [6] = assay: Percent reduction of total cholesterol level in plasma was evaluated at dose 10 mg/kg in rat; format: functional
# Rattus norvegicus [7] = assay: Percent reduction of phospholipid level in plasma was evaluated 100 mg/kg in rat; format: functional
# Rattus norvegicus [8] = assay: Percent reduction of phospholipid level in plasma was evaluated 30 mg/kg in rat; format: functional
# Rattus norvegicus [9] = assay: Percent increase in liver weight in plasma was evaluated 10 mg/kg in rat; format: functional
# Rattus norvegicus [10] = assay: Percent reduction of triglyceride level in plasma was evaluated 10 mg/kg in rat; format: functional
# Mus musculus [11] = assay: Dose required for 50% reduction of spontaneous locomotory activity in mice when administered orally (120 mg/kg is maximal dose administered); format: functional; settings: po
# Rattus norvegicus [12] = assay: Percent increase in liver weight in plasma was evaluated 30 mg/kg in rat; format: functional
# Rattus norvegicus [13] = assay: Percent reduction of total cholesterol level in plasma was evaluated at dose 3 mg/kg in rat; format: functional
# Rattus norvegicus [14] = assay: Percent reduction of total cholesterol level in plasma was evaluated at dose 30 mg/kg in rat; format: functional
# Rattus norvegicus [15] = assay: Percent reduction of total cholesterol level in plasma was evaluated at dose 100 mg/kg in rat; format: functional
# Rattus norvegicus [16] = assay: Percent reduction of triglyceride level in plasma was evaluated 30 mg/kg in rat; format: functional
# Rattus norvegicus [17] = assay: Percent reduction of phospholipid level in plasma was evaluated 10 mg/kg in rat; format: functional
# Rattus norvegicus [18] = assay: Percent increase in liver weight in plasma was evaluated 100 mg/kg in rat; format: functional
# Rattus norvegicus [19] = assay: Percent reduction of total cholesterol level in plasma was evaluated at dose 12.5 mg/kg in rat; format: functional
# Rattus norvegicus [20] = assay: Percent increase in liver weight in plasma was evaluated 12.5 mg/kg in rat; format: functional
# Rattus norvegicus [21] = assay: Percent reduction of triglyceride level in plasma was evaluated 12.5 mg/kg in rat; format: functional
# Rattus norvegicus [22] = assay: Percent increase in liver weight in plasma was evaluated 300 mg/kg in rat; format: functional
# Rattus norvegicus [23] = assay: Percent reduction of total cholesterol level in plasma was evaluated at dose 50 mg/kg in rat; format: functional
# Rattus norvegicus [24] = assay: Percent increase in liver weight in plasma was evaluated 25 mg/kg in rat; format: functional
# Rattus norvegicus [25] = assay: Percent reduction of triglyceride level in plasma was evaluated 25 mg/kg in rat; format: functional
# Rattus norvegicus [26] = assay: Percent reduction of total cholesterol level in plasma was evaluated at dose 300 mg/kg in rat; format: functional
# Rattus norvegicus [27] = assay: Percent reduction of total cholesterol level in plasma was evaluated at dose 25 mg/kg in rat; format: functional
# Rattus norvegicus [28] = assay: Percent reduction of phospholipid level in plasma was evaluated 25 mg/kg in rat; format: functional
# Rattus norvegicus [29] = assay: Percent reduction of triglyceride level in plasma was evaluated 50 mg/kg in rat; format: functional
# Rattus norvegicus [30] = assay: Percent reduction of phospholipid level in plasma was evaluated 12.5 mg/kg in rat; format: functional
# Rattus norvegicus [31] = assay: Percent reduction of triglyceride level in plasma was evaluated 300 mg/kg; in rat; format: functional
# Rattus norvegicus [32] = assay: Percent increase in liver weight in plasma was evaluated 50 mg/kg in rat; format: functional
# Mus musculus [33] = assay: Dose required for 50% reduction of spontaneous locomotory activity in mice when administered orally (100 mg/kg is maximal dose administered); format: functional; settings: po
# Rattus norvegicus [34] = assay: Dose required for 50% reduction of plasma cholesterol in rat when administered orally.(100 mg/kg is maximal dose administered); format: functional; settings: po
# Rattus norvegicus [35] = assay: Dose required for 50% reduction of plasma cholesterol in rat when administered orally (100 mg/kg maximal administered dose); format: functional; settings: po
# Mus musculus [36] = assay: Dose required for 50% reduction of spontaneous locomotory activity in mice when administered orally (200 mg/kg maximal administered dose); format: functional; settings: po
# Rattus norvegicus [37] = assay: Dose required for 50% reduction of plasma cholesterol in rat when administered orally; format: functional; settings: po
# Mus musculus [38] = assay: Dose required for 50% reduction of spontaneous locomotory activity in mice when administered orally (200 mg/kg is maximal dose administered); format: functional; settings: po
# Rattus norvegicus [39] = assay: Dose required for 50% reduction of plasma cholesterol in rat when administered orally. (100 mg/kg is maximal dose administered); format: functional; settings: po
# Rattus norvegicus [40] = assay: Dose required for 50% reduction of plasma cholesterol in rat when administered orally (45 mg/kg maximal administered dose); format: functional; settings: po
# Rattus norvegicus [41] = assay: Percent reduction of phospholipid level in plasma was evaluated 300 mg/kg in rat; format: functional
# Rattus norvegicus [42] = assay: Percent reduction of total cholesterol level in plasma was evaluated 300 mg/kg in rat; format: functional
# Rattus norvegicus [43] = assay: Percent reduction of total cholesterol level in plasma was evaluated 100 mg/kg in rat; format: functional
# Rattus norvegicus [44] = assay: Percent reduction of triglyceride level in plasma was evaluated 300 mg/kg in rat; format: functional
structure (smiles),measurement,setting,value
CC(C)(C)NC(=O)OC(CCN1CCN(c2ccccc2)CC1)C(=O)c1ccc(F)cc1 (stereo unspecified),ED50,Mus musculus [1],200 mg/kg
same,ED50,Rattus norvegicus [2],18 mg/kg
same,LD50,[3],> 1000 mg/kg
CC(=O)OC(CCN1CCN(c2ccccc2)CC1)C(=O)c1ccc(F)cc1.O=C(O)/C=C/C(=O)O (stereo unspecified),ED50,Mus musculus [1],56 mg/kg
same,ED50,Rattus norvegicus [4],100 mg/kg
same,LD50,[3],575 mg/kg
Cl.O=c1oc(CCN2CCN(c3cccc(Cl)c3)CC2)c(-c2ccc(F)cc2)o1,ED50,Mus musculus [1],46 mg/kg
same,LD50,[3],500 mg/kg
Cl.O=c1oc(CCN2CCN(c3ccccc3)CC2)c(-c2ccc(Cl)cc2)o1,ED50,Rattus norvegicus [4],11.3 mg/kg
same,Reduction,Rattus norvegicus [5],63%
same,Reduction,Rattus norvegicus [6],48%
same,Reduction,Rattus norvegicus [7],83%
same,Reduction,Rattus norvegicus [8],58%
same,Increase,Rattus norvegicus [9],3%
same,Reduction,Rattus norvegicus [10],15%
same,ED50,Mus musculus [11],31 mg/kg
same,Increase,Rattus norvegicus [12],13%
same,Reduction,Rattus norvegicus [13],16%
same,LD50,[3],865 mg/kg
same,Reduction,Rattus norvegicus [14],72%
same,Reduction,Rattus norvegicus [15],100%
same,Reduction,Rattus norvegicus [16],22%
same,Reduction,Rattus norvegicus [17],14%
same,Increase,Rattus norvegicus [18],28%
Cc1ccc(-c2oc(=O)oc2CCN2CCN(c3ccccc3)CC2)cc1.Cl,ED50,Rattus norvegicus [4],80 mg/kg
same,LD50,[3],> 1000 mg/kg
Cl.O=c1oc(CCN2CCN(c3ccccc3)CC2)c(-c2ccc(F)cc2)o1,Reduction,Rattus norvegicus [19],39%
same,ED50,Mus musculus [1],100 mg/kg
same,ED50,Rattus norvegicus [4],18.6 mg/kg
same,Reduction,Rattus norvegicus [5],27%
same,Increase,Rattus norvegicus [20],9%
same,Reduction,Rattus norvegicus [21],12%
same,Increase,Rattus norvegicus [22],43%
same,Reduction,Rattus norvegicus [23],76%
same,Reduction,Rattus norvegicus [7],75%
same,Increase,Rattus norvegicus [24],12%
same,Reduction,Rattus norvegicus [25],20%
same,Reduction,Rattus norvegicus [26],97%
same,LD50,[3],936 mg/kg
same,Reduction,Rattus norvegicus [27],57%
same,Reduction,Rattus norvegicus [15],85%
same,Reduction,Rattus norvegicus [28],52%
same,Reduction,Rattus norvegicus [29],36%
same,Reduction,Rattus norvegicus [30],19%
same,Reduction,Rattus norvegicus [31],82%
same,Increase,Rattus norvegicus [18],33%
same,Increase,Rattus norvegicus [32],12%
Cl.O=c1oc(CCN2CCN(c3cc(Cl)cc(Cl)c3)CC2)c(-c2ccc(F)cc2)o1,ED50,Mus musculus [33],16 mg/kg
same,LD50,[3],> 1000 mg/kg
same,ED50,Rattus norvegicus [34],5 mg/kg
Cl.O=c1oc(CCN2CCN(c3ccccc3)CC2)c(-c2ccccc2)o1,ED50,Mus musculus [1],50 mg/kg
same,ED50,Rattus norvegicus [4],50 mg/kg
same,LD50,[3],500 mg/kg
COc1cc(C(=O)OC(CCN2CCN(c3ccccc3)CC2)C(=O)c2ccc(F)cc2)cc(OC)c1OC.Cl (stereo unspecified),ED50,Rattus norvegicus [35],21 mg/kg
same,ED50,Mus musculus [36],13 mg/kg
same,LD50,[3],> 1000 mg/kg
Cl.O=C(c1ccc(F)cc1)C(O)CCN1CCN(c2ccccc2)CC1 (stereo unspecified),ED50,Mus musculus [1],35 mg/kg
same,ED50,Rattus norvegicus [4],50 mg/kg
same,LD50,[3],> 1000 mg/kg
Cl.O=c1oc(CCN2CCN(c3cccc(C(F)(F)F)c3)CC2)c(-c2ccc(F)cc2)o1,ED50,Mus musculus [1],200 mg/kg
same,LD50,[3],1000 mg/kg
CSc1ccc(-c2oc(=O)oc2CCN2CCN(c3ccccc3)CC2)cc1.Cl,ED50,Mus musculus [1],200 mg/kg
same,LD50,[3],> 1000 mg/kg
same,ED50,Rattus norvegicus [34],15 mg/kg
Cl.O=c1oc(CCCN2CCN(c3ccccc3)CC2)c(-c2ccc(F)cc2)o1,ED50,Rattus norvegicus [37],50 mg/kg
Cl.O=c1oc(CCN2CCN(c3ccccc3)CC2)c(-c2ccc(-c3ccccc3)cc2)o1,ED50,Mus musculus [38],29 mg/kg
same,LD50,[3],> 1000 mg/kg
Cl.O=c1oc(CCN2CCN(c3ccc(Cl)c(Cl)c3)CC2)c(-c2ccc(F)cc2)o1,ED50,Mus musculus [1],120 mg/kg
same,ED50,Rattus norvegicus [39],20 mg/kg
Cl.O=c1oc(CCN2CCN(c3ccc(Cl)cc3)CC2)c(-c2ccc(Cl)cc2)o1,LD50,[3],> 1000 mg/kg
same,ED50,Rattus norvegicus [34],8 mg/kg
COc1ccc(-c2oc(=O)oc2CCN2CCN(c3ccccc3)CC2)cc1.Cl,ED50,Mus musculus [1],75 mg/kg
same,LD50,[3],> 1000 mg/kg
same,ED50,Rattus norvegicus [34],25 mg/kg
COc1ccccc1N1CCN(CCc2oc(=O)oc2-c2ccc(F)cc2)CC1.Cl,ED50,Mus musculus [1],47 mg/kg
same,ED50,Rattus norvegicus [39],25 mg/kg
same,LD50,[3],350 mg/kg
CN(C)C(=O)OC(CCN1CCN(c2ccccc2)CC1)C(=O)c1ccc(F)cc1.Cl (stereo unspecified),ED50,Mus musculus [1],30 mg/kg
same,ED50,Rattus norvegicus [40],35 mg/kg
same,LD50,[3],150 mg/kg
CCOC(=O)C(C)(C)Oc1ccc(Cl)cc1 [CLOFIBRATE],Reduction,Rattus norvegicus [41],-11%
same,Reduction,Rattus norvegicus [5],7%
same,Increase,Rattus norvegicus [22],51%
same,Reduction,Rattus norvegicus [7],23%
same,Reduction,Rattus norvegicus [42],43%
same,Increase,Rattus norvegicus [12],3%
same,Reduction,Rattus norvegicus [43],46%
same,Reduction,Rattus norvegicus [14],31%
same,Reduction,Rattus norvegicus [16],20%
same,Reduction,Rattus norvegicus [44],-39%
same,Reduction,Rattus norvegicus [18],21%

# Reference: ChEMBL document CHEMBL1123019, “N-phenylpiperazine derivatives with hypocholesterolemic activity” (J Med Chem, 1985)
